Literature values as cited in patent publication US8815282B1, “Commercial method for production of room temperature-liquid cetyl myristoleate” (priority 2005, dated 2014).

Tested on: arthritis in mice
Conditions: pure CMO, Pharmacological Research 47 (2003) 43-47

CCCC/C=C\CCCCCCCC(=O)OCCCCCCCCCCCCCCCC [CMO, cetyl myristoleate]
incidence and severity of arthritis: significant reduction in the incidence and severity of arthritis
